In article PMC10683023, “Targeting Glial Cells by Organic Anion-Transporting Polypeptide 1C1 (OATP1C1)-Utilizing L-Thyroxine-Derived Prodrugs” (Journal of Medicinal Chemistry, 2023):

Experiments:
[1] = Enzymatic bioconversion in mouse liver S9 fraction; type: in vitro ADME; details: for Enzymatic stability, remaining percentage, mouse liver S9: after 5 h incubation, 100 μM prodrug; for Enzymatic stability, remaining percentage, mouse liver S9 / half-life at 100 µM: 37 °C, mean ± SD, n = 3; for Bioconversion rate in mouse liver S9 relative to the corresponding T4 derivative: DIT prodrug faster than T4 prodrug; for half-life at 100 µM: mouse, pH 7.4, liver S9 fraction, read-out: Enzymatic bioconversion half-life t1/2, mouse liver
Description: (§1) The rates of bioactivation of the prodrugs 1–8 in mouse and human liver S9 fractions, as well as in mouse primary astrocyte–microglia homogenate, were determined at +37 °C. The incubation mixtures were prepared by mixing liver S9 subcellular fraction or brain cell homogenate (final protein concentration 1.0 mg/mL) with isotonic Tris–HCl buffer (pH 7.4) and 10 mM prodrug stock solution in DMSO (the initial concentration of prodrugs was 100 μM and the DMSO concentration was […]). The mixture was incubated for 5 h, and the samples ([…]) were withdrawn at appropriate intervals. The enzymatic reaction was terminated by the addition of ice-cold acetonitrile ([…]), and the samples were centrifuged for 5 min at 12 000 rpm at room temperature and kept on ice until the supernatants were analyzed by the HPLC method described below. In blank reactions, the S9 fractions were replaced with the same volume of buffer. The pseudo-first-order half-lives (t1/2) for the rates of bioconversion of the prodrugs were calculated from the slope of the linear portion of the plotted logarithm of the remaining prodrug concentration versus time. The rates of bioactivation of prodrugs 1–8 in human plasma and mouse serum were determined at 37 °C as above by adding 10 mM stock solution of the prodrug to plasma/serum in a ratio of 1:10 and analyzed similarly to the samples from S9 fractions.
(§2) The amount of prodrug 1–8 was determined by the HPLC system, which consisted of an Agilent 1100 binary pump (Agilent Technologies Inc., Wilmington, DE), an 1100 micro vacuum degasser, an HP 1050 Autosampler, and an HP 1050 variable wavelength detector, operated at 230–240 nm. The chromatographic separations were achieved on an Agilent Zorbax SB-C18 analytical column (4.4 mm × 150 mm, 5 μm) (Agilent Technologies Inc., Wilmington, DE) by using isocratic elution of water containing 0.1% formic acid (pH ca. 3.0) and acetonitrile containing 0.1% formic acid with ratios of 50:50, 30:70, 40:60, 50:50, 50:50, 40:60, 40:60, and 30:70 (v/v), respectively, for prodrug 1–8. […] The lower limit of quantification for prodrugs 1–8 was 0.20 μM. These HPLC methods were also accurate, precise, and selective over the range of 0.5–20 μM.

[2] = Enzymatic bioconversion in mouse serum; type: in vitro ADME; details: for Enzymatic stability, remaining percentage, mouse serum: after 5 h incubation
Description: as §1, §2

[3] = Enzymatic bioconversion in human plasma; type: in vitro ADME; details: after 5 h incubation, 37 °C, mean ± SD, n = 3
Description: as §1, §2

[4] = Enzymatic bioconversion in mouse primary astrocyte–microglia homogenate; type: in vitro ADME; details: after 5 h incubation, 100 μM prodrug, 37 °C, mean ± SD, n = 3
Description: as §1, §2

[5] = tested on: human U-87MG glioma cells; assay: Concentration-dependent cellular uptake into human U-87MG glioma cells; type: cell-based; details: for Km / Vmax, cellular uptake, U-87MG: 5–400 μM, 30 min, 37 °C
Description: U-87MG (ATCC, HTB-14, unknown origin) was purchased from Lonza (Basel, Switzerland). The cells were cultured in standard conditions (37 °C, 5% CO2) using Dulbecco’s modified Eagle’s medium (DMEM) supplemented with L-glutamine (2.0 mM), heat-inactivated fetal bovine serum (FBS) (10%), penicillin (50 U/mL), and streptomycin (50 μg/mL). U-87MG cells (passages 8–25) were seeded at a density of 1 × 10^5 cells/well onto 24-well plates and used for the uptake experiments 1 day after seeding. All of the studies were carried out as three biological replicates from the same cell passage.
After removal of the culture medium, U-87MG human glioma cells and mouse primary astrocytes were carefully washed with prewarmed Hank’s balanced salt solution (HBSS) containing 125.0 mM NaCl (or choline chloride in Na^+ free conditions), 4.8 mM KCl, 1.2 mM MgSO4, 1.2 mM KH2PO4, 1.3 mM CaCl2, 5.6 mM glucose, and 25.0 mM 4-(2-hydroxyethyl)piperazine-1-ethanesulfonic acid (HEPES) with the pH adjusted to either 7.4 or pH 8.5 with 1 M NaOH (or KOH in sodium-free conditions). In the experiments at lower pH (4.5–6.5), 25.0 mM HEPES was replaced by 2-(N-morpholino) ethanesulfonic acid (MES), and the pH was adjusted to 4.5, 5.5, and 6.5 by 1.0 M NaOH. Preincubation was done with 500 μL of prewarmed HBSS at 37 °C for 10 min before adding the substrate for the uptake experiments. The functionality of OATP1C1 in human glioma U-87MG cells was studied with a known substrate (L-thyroxine, T4) and of oatp1a4, 1a5, and 1a6 in mouse primary astrocytes with [6,7-^3H(N)]-estrone-3-sulfate (ES) by incubating the uptake solution (250 μL in HBSS) consisting of 5–400 μM of the substrate at 37 °C for 30 min. After incubation, the uptake was stopped by adding 500 μL of ice-cold HBSS, and the cells were washed two times with ice-cold HBSS (2 × 500 μL). The cells were then lysed with 500 μL of 0.1 M NaOH (60 min), the lysate was neutralized, and the protein was precipitated with acidic acetonitrile (ACN with 4.8% formic acid). The supernatants were analyzed by the high-performance liquid chromatography (HPLC) methods described below (T4) or by using a liquid scintillation counter (MicroBeta2 counter, PerkinElmer, Waltham, MA) (ES). The concentrations of T4 and ES were calculated from the spiked standard curve and normalized with the protein concentrations. The protein concentrations on each plate were determined as a mean of three samples by Bio-Rad Protein Assay, based on the Bradford dye-binding method, using bovine serum albumin (BSA) as a standard protein and measuring the absorbance (595 nm) by a multiplate reader (EnVision, PerkinElmer, Inc., Waltham, MA). The OATP-mediated uptake was confirmed by changing the pH of the uptake buffer in the absence of sodium ions, and in the case of OATP1C1 in human U-87MG cells, the uptake of T4 (100 μM) was studied in the presence of competing OATP1C1-ligands, diclofenac and flufenamic acid (100 μM), and in the case of oatp1a4/1a5/1a6 in mouse primary astrocytes, the uptake of ES (100 μM) was studied in the presence of competing OATO1A2-ligand, naringin (100 μM).
Cellular uptake of prodrugs 1–8 was studied as described for L-thyroxine above by adding compounds at a concentration of 5–400 μM in prewarmed HBSS buffer (250 μL) on the cell layer and incubating at 37 °C for 30 min (uptake was linear with all compounds up to 30 min). Subsequently, the cells were washed three times with ice-cold HBSS and lysed with 500 μL of 0.1 M NaOH (60 min). The lysate was neutralized; the proteins were precipitated with acidic ACN (containing 4.8% formic acid), and the supernatants were analyzed by the (HPLC) methods described below. The concentrations of each prodrug normalized to protein concentration were calculated from the standard curve prepared by spiking known concentrations of compounds into ACN-precipitated cell lysate. […]

| SMILES | Enzymatic stability, remaining percentage, mouse liver S9 [1] | Enzymatic stability, remaining percentage, mouse serum ([2]; 37 °C, mean ± SD, n = 3) | Enzymatic stability, remaining percentage, human plasma [3] | Enzymatic stability, remaining percentage, mouse brain cell homogenate [4] | Bioconversion rate in mouse liver S9 relative to the corresponding T4 derivative [1] | half-life at 100 µM [1] | Bioconversion rate in mouse serum relative to human plasma ([2]; higher in mouse serum) | half-life at 1 mM ([2]; mouse, serum, 37 °C, mean ± SD, n = 3, read-out: Enzymatic bioconversion half-life t1/2, mouse serum) | Km [5] | Vmax, cellular uptake, U-87MG [5] | Vmax, cellular uptake, U-87MG ([5]; listed as PD2) | Transport capacity relative to prodrug 3 ([5]; at 200 μM concentration, U-87MG cells) | Affinity relative to corresponding DIT prodrug 3 ([5]; from Km values, U-87MG cells) | Vmax, cellular uptake, U-87MG ([5]; listed as PD5) | Vmax, cellular uptake, U-87MG ([5]; listed as PD6) |
| --- | --- | --- | --- | --- | --- | --- | --- | --- | --- | --- | --- | --- | --- | --- | --- |
| CC(C(=O)Oc1c(I)cc(C[C@H](N)C(=O)O)cc1I)c1ccc(-c2ccccc2)c(F)c1 (mixture of isomers) [Prodrug 7, (2S)-2-Amino-3-(4-((2-(2-fluoro-[1,1′-biphenyl]-4-yl)propanoyl)oxy)-3,5-diiodophenyl)propanoic acid] | 25.19 ± 6.22% | 94.89 ± 5.11% | 90.52 ± 9.48% | 92.68 ± 7.32% | around 3 times | 2.69 ± 0.429 h | – | – | 381 ± 73 µM | 19.8 ± 2.3 nmol/min/mg | – | – | – | – | – |
| N[C@@H](Cc1cc(I)c(OC(=O)c2ccccc2O)c(I)c1)C(=O)O [Prodrug 3, (S)-2-Amino-3-(4-((2-hydroxybenzoyl)oxy)-3,5-diiodophenyl)propanoic acid] | 99.06 ± 0.94% | 14.40 ± 0.60% | 68.94 ± 2.01% | 95.26 ± 4.74% | – | – | 5 times | 1.39 ± 0.49 h | 539 ± 97 µM | 9.9 ± 1.2 nmol/min/mg | – | – | – | – | – |
| N[C@@H](Cc1cc(I)c(Oc2cc(I)c(OC(=O)c3ccccc3O)c(I)c2)c(I)c1)C(=O)O [Prodrug 4, (S)-2-Amino-3-(4-(4-((2-hydroxybenzoyl)oxy)-3,5-diiodophenoxy)-3,5-diiodophenyl)propanoic acid] | 69.18 ± 0.81% | 96.79 ± 3.21% | 97.17 ± 2.83% | 91.38 ± 5.34% | – | – | – | – | 106 ± 32 µM | 9.0 ± 1.1 nmol/min/mg | – | ca. 3.5 times | 5 times | – | – |
| COc1ccc2cc([C@H](C)C(=O)Oc3c(I)cc(C[C@H](N)C(=O)O)cc3I)ccc2c1 [Prodrug 5, (S)-2-Amino-3-(3,5-diiodo-4-(((S)-2-(6-methoxynaphthalen-2-yl)propanoyl)oxy)phenyl)propanoic acid] | 38.26 ± 4.49% | 96.75 ± 3.25% | 70.94 ± 29.06% | 92.98 ± 6.14% | 2 times | 4.15 ± 0.761 h | – | – | 138 ± 79 µM | 9.0 nmol/min/mg | – | – | – | 9.0 ± 3.7 nmol/min/mg | – |

The next lines start with results.

| Enzymatic stability, remaining percentage, mouse liver S9 [1] | Enzymatic stability, remaining percentage, mouse serum ([2]; 37 °C, mean ± SD, n = 3) | Enzymatic stability, remaining percentage, human plasma [3] | Enzymatic stability, remaining percentage, mouse brain cell homogenate [4] | Bioconversion rate in mouse liver S9 relative to the corresponding T4 derivative [1] | half-life at 100 µM [1] | Bioconversion rate in mouse serum relative to human plasma ([2]; higher in mouse serum) | half-life at 1 mM ([2]; mouse, serum, 37 °C, mean ± SD, n = 3, read-out: Enzymatic bioconversion half-life t1/2, mouse serum) | SMILES | Km [5] | Vmax, cellular uptake, U-87MG [5] | Vmax, cellular uptake, U-87MG ([5]; listed as PD2) | Transport capacity relative to prodrug 3 ([5]; at 200 μM concentration, U-87MG cells) | Affinity relative to corresponding DIT prodrug 3 ([5]; from Km values, U-87MG cells) | Vmax, cellular uptake, U-87MG ([5]; listed as PD5) | Vmax, cellular uptake, U-87MG ([5]; listed as PD6) |
| --- | --- | --- | --- | --- | --- | --- | --- | --- | --- | --- | --- | --- | --- | --- | --- |
| 87.59 ± 1.20% | 98.79 ± 1.21% | 96.47 ± 3.53% | 96.01 ± 3.99% | – | – | – | – | CC(C(=O)Oc1c(I)cc(Oc2c(I)cc(C[C@H](N)C(=O)O)cc2I)cc1I)c1cccc(C(=O)c2ccccc2)c1 (mixture of isomers) [Prodrug 2, (2S)-2-Amino-3-(4-(4-((2-(3-benzoylphenyl)propanoyl)oxy)-3,5-diiodophenoxy)-3,5-diiodophenyl)propanoic acid] | 118 ± 27 µM | 13 nmol/min/mg | 13.0 ± 1.3 nmol/min/mg | – | – | – | – |
| 84.32 ± 0.99% | 96.79 ± 3.21% | 97.17 ± 2.83% | 97.94 ± 2.06% | – | – | – | – | CC(C(=O)Oc1c(I)cc(Oc2c(I)cc(C[C@H](N)C(=O)O)cc2I)cc1I)c1ccc(-c2ccccc2)c(F)c1 (mixture of isomers) [Prodrug 8, (2S)-2-Amino-3-(4-(4-((2-(2-fluoro-[1,1′-biphenyl]-4-yl)propanoyl)oxy)-3,5-diiodophenoxy)-3,5-diiodophenyl)propanoic acid] | 221 ± 48 µM | 21.5 ± 2.4 nmol/min/mg | – | – | – | – | – |
| 78.10 ± 1.88% | 98.33 ± 1.67% | 96.32 ± 3.68% | 95.18 ± 4.82% | – | – | – | – | COc1ccc2cc([C@H](C)C(=O)Oc3c(I)cc(Oc4c(I)cc(C[C@H](N)C(=O)O)cc4I)cc3I)ccc2c1 [Prodrug 6, (S)-2-Amino-3-(4-(3,5-diiodo-4-(((S)-2-(6-methoxynaphthalen-2-yl)propanoyl)oxy)phenoxy)-3,5-diiodophenyl)propanoic acid] | 138 ± 36 µM | 13.5 nmol/min/mg | – | – | – | – | 13.5 ± 1.6 nmol/min/mg |
